Laboratory results as given in article PMC12596500, “Affinity-selected peptide ligands specifically bind i-motif DNA and modulate c-Myc gene expression” (Nucleic Acids Research, 2025).
Peptide text beside a SMILES is read from it.

Columns and labels:
[1] = system: c-MycC52 iM; assay: Fluorescent indicator displacement (FID) assay with Thiazole Orange; assay type: binding; conditions: 1 µM c-MycC52, 2 µM TO, 10 mM sodium cacodylate pH 6.6, peptides 25-200 µM, n = 3
Experimental: Fluorescent indicator displacement (FID) experiments used in this publication are based on the first FID assay developed for iM DNA [35]. The FID experiments were performed on a BMG CLARIOstar plate reader using 96-well, solid black flat-bottom plates. Thiazole Orange (TO) was the indicator, and the stock solution was prepared at 10 mM in DMSO. The TO stock was diluted into the appropriate buffer to 2 µM. Each well received 9 µl of the 2 µM TO solution, was excited at 430 nm, and fluorescence emission at 450 nm was measured; this was normalized to 0% to account for background fluorescence. One microlitre of […] DNA was added to each well and shaken in the plate reader for 30 s using double orbital shaking at 700 rpm and left for 10 min to equilibrate. Following equilibration, fluorescence emission was measured and normalized to 100% representing maximum fluorescence. Peptides were titrated starting at 25 µM, with 0.9 µl additions into each well in triplicate, until a final concentration of 200 µM was reached, and fluorescence emission was measured after each addition. Fluorescence emission for each well was normalized between 0% and 100%, which was taken away from 100 to give the percentage of displacement. The data were analyzed in Origin data analysis software and fitted with a hyperbolic dose–response curve from which the DC50 value was interpolated.
The relative binding of the five peptide ligands to the folded c-MycC52 iM was assessed via a FID assay using TO (Fig. 1). These experiments were performed in 10 mM sodium cacodylate at pH 6.6, the transitional pH of the c-Myc iM-forming sequence. As iM-formation is reduced at higher pH and higher ionic strength, additional stabilizing cations were avoided to allow the highest proportion of iM formation at the highest pH, to represent as close to physiological pH conditions as possible.
Figure 1. Concentration-dependent interaction of peptides with c-MycC52 iM determined via FID assay. The assay was performed with 1 µM c-MycC52 in 10 mM sodium cacodylate, pH 6.6, in the presence of 2 µM TO. Peptide ligands were added in increments of 25 µM up to a final concentration of 200 µM. Data are presented as mean ± SD (n = 3) and fitted using a Hill-Slope dose–response curve.

[2] = Solubility and aggregation state seen by NMR; assay type: physicochemical; conditions: one equivalent of peptide to 50 µM c-MycC52, 10 mM sodium cacodylate pH 6.6, 10% D2O, 283 K, read-out 1H NMR
Experimental: (§1) NMR: ^1H NMR spectra of c-MycC52 were recorded at 283 K using a Bruker Avance NEO 600 MHz spectrometer equipped with QCI-F cryoprobe operating Topspin 4.5.0. Spectra were recorded with excitation sculpting, at 27.75 ppm spectral width, 1 s acquisition time, and 1 s recycle delay. Spectra of the imino proton region were acquired with a 1D SOFAST excitation scheme with a 1293 μs Pc9_4_120 excitation pulse and 720 μs Reburp refocusing pulse, centred at 13 ppm, a 29.75 ppm spectral width, 115 ms acquisition time, and 100 ms recycle delay. Samples were annealed at a final concentration of 50 µM in 10 mM sodium cacodylate (pH 6.6). 10% D2O and 0.01% sodium trimethylsilylpropanesulfonate (DSS) were added immediately before recording NMR spectra experiments. Spectra were processed with exponential line broadening and referenced to the Sodium trimethylsilylpropanesulfonate (DSS) chemical shift. The chemical shift of the cacodylate buffer resonance was used to monitor potential pH changes between samples.
(§2) Given the selectivity of the Pep-PTN and Pep-VSE peptides for the c-Myc iM structure, both in the binding experiments and also the in vitro gene assays, we considered potential binding modes. We recorded NMR spectra of the c-MycC52 oligonucleotide in the presence and absence of Pep-VSE to give insights into potential binding sites (Supplementary Figs S17–S20). […]

[3] = system: c-MycC52; assay: 1H NMR of c-MycC52 with peptide; assay type: binding; conditions: 50 µM c-MycC52, one equivalent of peptide, 10 mM sodium cacodylate pH 6.6, 10% D2O, 283 K, 600 MHz
Experimental: as §1, §2

SMILES: CC(=O)N1CCC[C@H]1C(=O)N[C@H](C(=O)N[C@@H](CC(N)=O)C(=O)N[C@H](C(=O)N[C@@H](CO)C(=O)NCC(=O)N[C@@H](CCCNC(=N)N)C(=O)N[C@@H](CC(N)=O)C(=O)N[C@@H](Cc1ccc(O)cc1)C(=O)N[C@@H](CC(C)C)C(=O)N[C@@H](Cc1ccccc1)C(=O)N[C@@H](CS)C(N)=O)C(C)C)[C@@H](C)O [Pep-PTN] (Ac-PTNVSGRNYLFC-NH2)
- relative binding affinity ranking (TO displacement) [1]: SLC > PTN > VSE > EIE > RVS

SMILES: CC(=O)N[C@H](C(=O)N[C@@H](CO)C(=O)N[C@@H](CCC(=O)O)C(=O)N[C@@H](C)C(=O)N[C@@H](Cc1c[nH]c2ccccc12)C(=O)N[C@@H](CCCCN)C(=O)N[C@@H](CCC(=O)O)C(=O)N[C@H](C(=O)N[C@@H](CCCCN)C(=O)NCC(=O)N[C@@H](Cc1ccccc1)C(=O)N[C@@H](Cc1ccccc1)C(N)=O)C(C)C)C(C)C [Pep-VSE] (Ac-VSEAWKEVKGFF-NH2)
- solubility and aggregation state of the peptide (NMR) [2]: soluble and not aggregated
- effect on imino resonances of c-MycC52 (NMR) [3]: no perturbations to imino resonances
- relative binding affinity ranking (TO displacement) [1]: SLC > PTN > VSE > EIE > RVS
